Test results reported in BindingDB's records for doi:10.1007/s00210-003-0860-y (UniversitÄT WÜRzburg, 2004).
Where a name gives a salt, the structure may show the parent alone.

Experiments:
[1] = target: Beta-3 adrenergic receptor (Homo sapiens, UniProt P13945)
[2] = target: Beta-2 adrenergic receptor (Homo sapiens, UniProt P07550)
Chain of Beta-2 adrenergic receptor (P07550 whole entry): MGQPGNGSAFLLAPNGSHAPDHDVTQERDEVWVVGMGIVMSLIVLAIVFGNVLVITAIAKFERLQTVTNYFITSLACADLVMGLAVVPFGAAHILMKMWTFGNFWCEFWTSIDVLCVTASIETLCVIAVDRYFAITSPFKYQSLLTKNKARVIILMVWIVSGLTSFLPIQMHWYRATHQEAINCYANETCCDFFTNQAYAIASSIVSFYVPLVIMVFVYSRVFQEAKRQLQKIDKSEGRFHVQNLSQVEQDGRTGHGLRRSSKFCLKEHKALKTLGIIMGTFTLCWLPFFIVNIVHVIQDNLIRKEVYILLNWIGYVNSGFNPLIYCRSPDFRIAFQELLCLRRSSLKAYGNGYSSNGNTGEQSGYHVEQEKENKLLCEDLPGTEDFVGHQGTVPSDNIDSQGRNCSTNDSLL

Chain of Beta-3 adrenergic receptor (P13945 whole entry): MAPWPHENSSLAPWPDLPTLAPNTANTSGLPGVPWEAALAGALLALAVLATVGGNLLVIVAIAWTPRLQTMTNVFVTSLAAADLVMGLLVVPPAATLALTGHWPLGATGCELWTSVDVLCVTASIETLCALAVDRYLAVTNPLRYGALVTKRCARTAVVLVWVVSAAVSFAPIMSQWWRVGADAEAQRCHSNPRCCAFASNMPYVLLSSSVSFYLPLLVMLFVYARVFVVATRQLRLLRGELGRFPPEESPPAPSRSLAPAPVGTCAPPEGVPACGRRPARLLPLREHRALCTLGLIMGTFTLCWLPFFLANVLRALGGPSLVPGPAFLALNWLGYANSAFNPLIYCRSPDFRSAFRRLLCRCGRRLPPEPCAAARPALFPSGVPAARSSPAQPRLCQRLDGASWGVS

| Structure (SMILES) | Ki [1] | Ki [2] |
| --- | --- | --- |
| CC(C)(C)NCC(O)COc1cccc2[nH]c(=O)[nH]c12 (centres undefined) [4-[3-(tert-butylamino)-2-hydroxypropoxy]-2,3-dihydro-1H-1,3-benzodiazol-2-one hydrochloride] | 0.0771 µM |  |
| CC(Cc1ccc(OCC(=O)O)cc1)NCC(O)c1cccc(Cl)c1 (centres undefined) [CAS_2437] |  | 9.17 µM |
| CCc1ccccc1OC[C@@H](O)CN[C@H]1CCCc2ccccc21 [CAS_174689-39-5] | 0.122 µM | 0.0619 µM |
| CNCC(O)c1ccc(O)c(O)c1 (centres undefined) [EPINEPHRINE] | > 10 µM |  |

Further lines, results first:

| Ki [1] | Ki [2] | Structure (SMILES) |
| --- | --- | --- |
| > 10 µM |  | CC(C)(C)NCC(O)c1cc(O)cc(O)c1 (racemic) [Terbutaline,(+/-)] |
| 3.99 µM | 1.29 µM | CC(C)(C)NCC(O)c1cc(Br)no1 (centres undefined) [NSC_71149] |
| 7.18 µM |  | OCc1cc(C(O)CNCCCCCCOCCCCc2ccccc2)ccc1O (centres undefined) [salmeterol xinafoate] |
